Experimental data reported in EP3811940B1, “SUBSTITUTED 4,5'-BITHIAZOLES AS INHIBITORS OF THE HUMAN DNA TOPOISOMERASE II” (Kemijski Institut, priority 2019, dated 2021).
Where “and” joins values, the source holds several entries; their conditions need not be identical. Equal values may be shown once.

What was measured:
HepG2 cells [1] = assay: γ-H2AX assay, induction of DNA double strand breaks; assay type: cell-based, human; details: 24h, result in words
Description: Figure 4. Cell cycle analysis, cell proliferation and induction of the DNA double stand breaks (DBS) by the selected substituted 4,5'-bithiazole compound 1. (A) Percent of HepG2 cells in certain phases of cell cycle after 24h treatment to compound 1 at 50 µM and 10 µM in comparison with the solvent control (0). […] (B) Percent of proliferative cells after 24h treatment to compound 1 at 50 µM and 10 µM determined with the Ki67 antibody. (C) Results of the analyses of the induction of the DNA double strand breaks by γ-H2AX assay. Distribution of the fluorescent signals of individual cells in the samples is shown. Data are presented as quantile box plots. […] In each sample, 10^4 events were recorded, and experiments were repeated three times independently. […]
After the exposure floating and adherent cells were collected by trypsinization. […] FITC intensity, corresponding to proliferation marker Ki67+, was detected in the FITC-A channel and cell cycle analysis was detected in VioBlueA channel. APC intensity, corresponding to DSBs, was detected in the APC-A channel. […] In each sample, 10 000 events were recorded. […] For the yH2AX foci analysis the statistical significance between treated groups and the vehicle control was determined with a linear mixed-effects model. […]

human topo IIα = molecular target: T1, human topo IIα (Homo sapiens, UniProt P11388); assay: competitive ATPase assay at different ATP concentrations; assay type: biochemical
T1 construct: purchased Inspiralis (Norwich, UK)
Description: Then, we performed the competitive ATPase assay for compound 1, to investigate how our class of compounds affects the ATP hydrolysis in dependence of ATP concentration. Assay was performed at 8 different concentrations of ATP and compound 1. […] The assay was carried out in two parallels. […] In addition, we also calculated the IC50 values of compound 1 vs. different concentrations of the ATP.
Compound were analyzed using a linked ATPase assay in which the ADP produced by the hydrolysis of ATP leads to the conversion of NADH to NAD by a pyruvate kinase/lactate dehydrogenase mix. The disappearance of NADH was monitored at 340 nm. A mix of the assay buffer (5 µL of 10X buffer per assay: final conc. 20 mM Tris-HCl, 5 mM magnesium acetate, 125 mM potassium acetate, 2 mM DTT, pH 7.9), linear pBR322 (1.5 µL of 1mg/mL per assay), phosphoenol pyruvate (0.5 µL of 80 mM per assay), pyruvate kinase/lactate dehydrogenase mix (0.75 µL per assay), NADH (1 µL of 20 mM per assay), DMSO (1.5 µL per assay), and water (32.85 µL per assay) was made. 41.1 µL of this mixture was aliquoted into the wells of a 384-well microtiter plate. 0.5 µL of DMSO or the investigated compound were added to the wells and mixed. 5 µL of the dilution buffer or human topo IIα (200 nM stock giving the 12 nM final concentration) were then added and mixed. A pre-run was done before the run was started by adding 3.4 µL of the appropriate concentration of ATP and the OD340 monitored for up to 35 minutes. Assays were performed at 37 °C. Two negative controls (4 % DMSO and dilution buffer without enzyme) were run in the presence of 2 mM ATP. This assay was performed at 8 different concentrations of the ATP (0.025, 0.05, 0.075, 0.1, 0.25, 0.5, 0.75 and 1 mM). Assays were performed at 3.9, 31, 50, 75 and 100 µM final concentrations of the investigated compound 1. The final DMSO concentration in all the reactions was 4 % (v/v). Assay was performed in duplicate. The human topo competitive ATPase assay was performed in collaboration with Inspiralis (Norwich, UK).

HepG2 cells [2] = assay: cell proliferation, Ki-67 marker, flow cytometry; assay type: cell-based, human; details: 24h
Description: After the exposure floating and adherent cells were collected by trypsinization. For the fixation the cells were centrifuged at 800 rpm, 4°C for 5 min, washed twice with ice cold PBS, resuspended in 0.5 mL cold PBS and ethanol (1.5 mL) was added drop wise into the cell pellet, while vortexing. The cells were fixed at 4°C overnight and stored at -20°C until analysis. Fixed cells were centrifuged at 1200 rpm for 10 min, washed with ice cold 1× PBS and labelled with Anti-H2AX pS139 antibodies (50-fold diluted) for DNA DBS analysis, Ki67 antibodies (50-fold diluted) for proliferation analysis and Hoechst 33342 dye for cell cycle analysis according to the manufacturer's protocol. Flow cytometric analysis was carried out on a MACSQuant Analyzer 10 (Miltenyi Biotech, Germany). FITC intensity, corresponding to proliferation marker Ki67+, was detected in the FITC-A channel and cell cycle analysis was detected in VioBlueA channel. APC intensity, corresponding to DSBs, was detected in the APC-A channel. Unspecific binding was checked with rea-FITC and rea-APC antibodies (Miltenyi Biotec, Germany). In each sample, 10 000 events were recorded. Independent experiments were repeated three times. […] For the yH2AX foci analysis the statistical significance between treated groups and the vehicle control was determined with a linear mixed-effects model. […]

HepG2 cells [3] = assay: cell cycle analysis by flow cytometry (Hoechst 33342); assay type: cell-based, human; details: 24h, mean ± SD of 3; for S phase, percent of HepG2 cells: listed as head printed "5" in Table 7
Description: Figure 4. Cell cycle analysis, cell proliferation and induction of the DNA double stand breaks (DBS) by the selected substituted 4,5'-bithiazole compound 1. (A) Percent of HepG2 cells in certain phases of cell cycle after 24h treatment to compound 1 at 50 µM and 10 µM in comparison with the solvent control (0). […] (B) Percent of proliferative cells after 24h treatment to compound 1 at 50 µM and 10 µM determined with the Ki67 antibody. (C) Results of the analyses of the induction of the DNA double strand breaks by γ-H2AX assay. Distribution of the fluorescent signals of individual cells in the samples is shown. Data are presented as quantile box plots. The edges of the box represent the 25th and 75th percentiles, the median is a solid line through the box, and the bars represent 95% confidence intervals. In each sample, 10^4 events were recorded, and experiments were repeated three times independently. Significant difference between treated cells and the solvent control (0) is indicated by * p < 0.05, ** p < 0.01 and *** p < 0.001.
After the exposure floating and adherent cells were collected by trypsinization. For the fixation the cells were centrifuged at 800 rpm, 4°C for 5 min, washed twice with ice cold PBS, resuspended in 0.5 mL cold PBS and ethanol (1.5 mL) was added drop wise into the cell pellet, while vortexing. The cells were fixed at 4°C overnight and stored at -20°C until analysis. Fixed cells were centrifuged at 1200 rpm for 10 min, washed with ice cold 1× PBS and labelled with Anti-H2AX pS139 antibodies (50-fold diluted) for DNA DBS analysis, Ki67 antibodies (50-fold diluted) for proliferation analysis and Hoechst 33342 dye for cell cycle analysis according to the manufacturer's protocol. Flow cytometric analysis was carried out on a MACSQuant Analyzer 10 (Miltenyi Biotech, Germany). FITC intensity, corresponding to proliferation marker Ki67+, was detected in the FITC-A channel and cell cycle analysis was detected in VioBlueA channel. APC intensity, corresponding to DSBs, was detected in the APC-A channel. Unspecific binding was checked with rea-FITC and rea-APC antibodies (Miltenyi Biotec, Germany). In each sample, 10 000 events were recorded. Independent experiments were repeated three times. […] For further analysis the raw data was exported from MACSQuantify software and it was converted to. fcs format and further to the .csv format. For the yH2AX foci analysis the statistical significance between treated groups and the vehicle control was determined with a linear mixed-effects model. Calculations were done with the statistical program R [49] and its packages reshape and nlme.

T1 sequence (P11388 whole entry): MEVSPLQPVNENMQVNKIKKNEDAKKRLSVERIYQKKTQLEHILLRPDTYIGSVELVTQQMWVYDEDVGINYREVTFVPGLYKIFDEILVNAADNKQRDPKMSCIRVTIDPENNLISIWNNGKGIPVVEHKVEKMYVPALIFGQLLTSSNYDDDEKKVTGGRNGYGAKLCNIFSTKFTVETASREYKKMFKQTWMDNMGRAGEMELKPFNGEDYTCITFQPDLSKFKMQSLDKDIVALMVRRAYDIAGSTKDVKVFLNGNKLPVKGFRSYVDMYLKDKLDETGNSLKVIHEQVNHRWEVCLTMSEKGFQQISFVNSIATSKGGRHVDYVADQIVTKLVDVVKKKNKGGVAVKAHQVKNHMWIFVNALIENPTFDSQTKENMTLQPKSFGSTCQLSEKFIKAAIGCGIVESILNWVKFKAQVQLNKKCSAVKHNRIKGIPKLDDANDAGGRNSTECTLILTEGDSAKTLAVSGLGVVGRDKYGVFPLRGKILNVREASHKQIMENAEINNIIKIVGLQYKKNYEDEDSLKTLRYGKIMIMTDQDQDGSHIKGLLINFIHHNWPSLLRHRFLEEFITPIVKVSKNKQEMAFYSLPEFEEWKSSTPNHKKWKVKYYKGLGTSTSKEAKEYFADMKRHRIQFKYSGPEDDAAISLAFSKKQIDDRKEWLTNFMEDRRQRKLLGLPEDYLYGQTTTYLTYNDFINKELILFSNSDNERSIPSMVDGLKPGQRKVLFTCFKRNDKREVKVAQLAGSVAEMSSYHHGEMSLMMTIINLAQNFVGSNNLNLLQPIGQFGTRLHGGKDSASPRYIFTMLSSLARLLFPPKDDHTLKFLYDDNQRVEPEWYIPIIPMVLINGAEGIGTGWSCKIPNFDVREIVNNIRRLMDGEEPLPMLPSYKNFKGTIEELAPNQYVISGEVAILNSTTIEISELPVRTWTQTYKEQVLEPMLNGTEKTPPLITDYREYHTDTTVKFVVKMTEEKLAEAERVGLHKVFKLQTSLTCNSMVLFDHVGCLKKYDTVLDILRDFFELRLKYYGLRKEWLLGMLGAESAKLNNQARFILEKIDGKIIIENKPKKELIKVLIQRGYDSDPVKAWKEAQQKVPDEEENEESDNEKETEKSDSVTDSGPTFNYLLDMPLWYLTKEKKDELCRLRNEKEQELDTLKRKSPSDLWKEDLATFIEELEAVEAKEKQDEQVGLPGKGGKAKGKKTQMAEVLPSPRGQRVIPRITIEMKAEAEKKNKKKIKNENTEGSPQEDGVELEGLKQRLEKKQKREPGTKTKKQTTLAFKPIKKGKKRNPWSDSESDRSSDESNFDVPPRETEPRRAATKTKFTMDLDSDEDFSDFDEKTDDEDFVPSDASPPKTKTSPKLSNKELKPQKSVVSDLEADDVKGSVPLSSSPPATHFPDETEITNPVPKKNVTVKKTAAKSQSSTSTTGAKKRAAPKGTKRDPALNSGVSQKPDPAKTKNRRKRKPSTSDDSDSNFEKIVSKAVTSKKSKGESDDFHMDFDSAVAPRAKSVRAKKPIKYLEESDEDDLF

**Q.** Which results are given for Cc1nc(N)sc1-c1csc(Nc2ccc(C(F)(F)F)cc2)n1 [Compound 1, 4'-methyl-N2-(4-(trifluoromethyl)phenyl)-[4,5'-bithiazole]-2,2'-diamine]?
**A.** DNA DSB formation (HepG2 cells [1]; 10 µM): no increase; DNA DSB formation (HepG2 cells [1]; 50 µM): no increase; IC50 (human topo IIα; c(ATP) 0.025): 3.8 µM; IC50 (human topo IIα; c(ATP) 0.05): 8.8 µM; IC50 (human topo IIα; c(ATP) 0.075): 14.8 µM; IC50 (human topo IIα; c(ATP) 0.1): 9.4 µM; IC50 (human topo IIα; c(ATP) 0.25): 18.3 µM; IC50 (human topo IIα; c(ATP) 0.5): 15.2 µM; IC50 (human topo IIα; c(ATP) 0.75): 17.8 µM; IC50 (human topo IIα; c(ATP) 1): 21.6 µM; IC50 (human topo IIα; c(ATP) 2): 25.4 µM; Percent of cell proliferation (Ki-67 positive) (HepG2 cells [2]; 10 µM): 88.6%; Percent of cell proliferation (Ki-67 positive) (HepG2 cells [2]; 50 µM): 81.3%; >G1, G2<, percent of HepG2 cells (HepG2 cells [3]; 10 µM): 1.2 ± 1.0%; G1 phase, percent of HepG2 cells (HepG2 cells [3]; 10 µM): 56.5% and 56.5 ± 6.4%; G2 phase, percent of HepG2 cells (HepG2 cells [3]; 10 µM): 24.8 ± 4.5%; S phase, percent of HepG2 cells (HepG2 cells [3]; 10 µM): 17.5% and 17.5 ± 1.1^∗∗∗ %; >G1, G2<, percent of HepG2 cells (HepG2 cells [3]; 50 µM): 1.4 ± 0.6%; G1 phase, percent of HepG2 cells (HepG2 cells [3]; 50 µM): 60.6% and 60.6 ± 7.0^∗ %; G2 phase, percent of HepG2 cells (HepG2 cells [3]; 50 µM): 26.2 ± 2.5%; S phase, percent of HepG2 cells (HepG2 cells [3]; 50 µM): 17.5% and 11.8 ± 4.5^∗∗ %
